Experimental data reported in article PMC7232172, “APETx-Like Peptides from the Sea Anemone Heteractis crispa, Diverse in Their Effect on ASIC1a and ASIC3 Ion Channels” (Toxins, 2020).
Read-outs that look alike come from different tables or passages of the source. Bridges are numbered along the chain shown (N, C = ends). Where no end group is shown, it is not given here.

Key:
[1] = molecular target: T1, rat ASIC1a channel (Rattus norvegicus, UniProt P55926); experiment: Two-electrode voltage clamp, homomeric ASIC1a currents in Xenopus laevis oocytes; assay type: cell-based; settings: for IC50: X. laevis oocytes, pH drop 7.8 to 5.5 (legend of Figure 4: from 7.4), peptide applied up to 15 s before, logistic fit, read-out: IC50, inhibition of rASIC1a current; for IC50 / A (response value at maximal inhibition, % of control), rASIC1a: mean ± SD, 5 cells; for A (response value at maximal inhibition, % of control), rASIC1a: fit parameter, pH drop to 5.5
T1 construct: expressed in transfected cells; host or cells: Xenopus laevis oocytes (cRNA injection)
T1 sequence (P55926 1-526): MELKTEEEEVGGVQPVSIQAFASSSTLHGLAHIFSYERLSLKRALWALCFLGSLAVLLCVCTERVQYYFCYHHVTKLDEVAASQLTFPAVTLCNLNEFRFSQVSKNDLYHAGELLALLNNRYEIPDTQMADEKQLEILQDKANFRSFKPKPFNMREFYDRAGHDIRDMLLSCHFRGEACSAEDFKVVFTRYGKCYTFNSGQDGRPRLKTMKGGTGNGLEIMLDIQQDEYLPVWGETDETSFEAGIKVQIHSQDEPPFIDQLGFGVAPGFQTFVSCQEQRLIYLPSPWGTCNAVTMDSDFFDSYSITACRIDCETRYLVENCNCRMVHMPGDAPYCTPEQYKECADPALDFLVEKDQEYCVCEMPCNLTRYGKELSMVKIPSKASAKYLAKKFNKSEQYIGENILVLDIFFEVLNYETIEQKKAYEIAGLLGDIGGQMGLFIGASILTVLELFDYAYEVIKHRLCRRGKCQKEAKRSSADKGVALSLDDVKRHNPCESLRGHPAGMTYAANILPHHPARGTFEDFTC
Experimental: (§1) The study of the pharmacological profile of the Hcr 1b-3 and Hcr 1b-4 peptides from H. crispa was carried out on two major ion channel subtypes, ASIC1a and ASIC3. Homomeric ASIC1a channels expressed in X. laevis oocytes were activated by a rapid pH drop from 7.8 to 5.5 in 15 s after peptide application. To analyze the effect of HcrTxs on the transient component of the ASIC3 current, the channels were activated by rapid extracellular acidification from pH 7.8 to 4.0, but effects on the sustained ASIC3 current were not studied. The inhibitory activity of three class 1b sea anemone toxins, APETx2, Hcr 1b-1, and Hcr 1b-2, towards ASICs was previously assayed in electrophysiological experiments (Table 2). In addition, we previously reported that the Hcr 1b-3 and Hcr 1b-4 peptides inhibited about 54% and 80% of the ASIC1a current, respectively.
(§2) Animal care and animal experiments were performed following the protocol approved by the Animal Care and Use Committee of the Shemyakin-Ovchinnikov Institute of Bioorganic Chemistry, Approval Code: 267/2018; Approval Date: 2 October 2018. RAS. Rat ASIC1a and ASIC3 channels were expressed in Xenopus laevis oocytes after injection of 2.5–10 ng of cRNA, as previously described. After injection oocytes were kept for 2–3 days at 19 °C and then up to 5 days at the temperature of 15–16 °C in sterile ND96 medium (96 mM NaCl, 2 mM KCl, 1.8 mM CaCl2, 1 mM MgCl2, 5 mM HEPES titrated to pH 7.4 with NaOH supplemented with 50 μg/mL of gentamycin). Two-electrode voltage clamp recordings were performed using GeneClamp 500 amplifier (Axon Instruments, Foster City, CA, USA). The data were filtered at 100 Hz and digitized at 1000 Hz by an AD converter L780 (LCard, Moscow, Russia) using in-house software. The solutions were applied to a cell chamber (volume 75 μL). The laminar flow of an external solution of ND96 (pH 7.8) was used at a rate of 1 mL/min. ASIC1a and ASIC3 were activated by a short pH drop from 7.8 to 5.5 or to 4.0 (10 mM MES or 10 mM acetic acid was used as the buffer solution, respectively) in supplementary 0.1% BSA solution. Peptides were applied for up to 15 s before the activation impulse. A value of currents inhibition was calculated as the ratio of the peak current amplitude when the peptide was applied to the average amplitude of the control peak currents before and after the peptide application and expressed as a percentage. To construct the concentration–response curves, a logistic equation was the following: y = ((1 – A)/(1 + ([C]/IC50) nH)) + A; where y is the relative value of current inhibition; C is the peptide concentration; IC50 is the half maximal inhibitory concentration; nH is the Hill coefficient; A is the response value at maximal inhibition (% of control). Calculations were carried out using software Origin 7.0. The data are presented as mean ± SD.

[2] = molecular target: T2, rat ASIC3 channel (Rattus norvegicus, UniProt O35240); experiment: Two-electrode voltage clamp, homomeric ASIC3 transient currents in Xenopus laevis oocytes; assay type: cell-based; settings: mean ± SD, 5 cells
T2 construct: expressed in transfected cells; host or cells: Xenopus laevis oocytes (cRNA injection)
T2 sequence (O35240 1-533): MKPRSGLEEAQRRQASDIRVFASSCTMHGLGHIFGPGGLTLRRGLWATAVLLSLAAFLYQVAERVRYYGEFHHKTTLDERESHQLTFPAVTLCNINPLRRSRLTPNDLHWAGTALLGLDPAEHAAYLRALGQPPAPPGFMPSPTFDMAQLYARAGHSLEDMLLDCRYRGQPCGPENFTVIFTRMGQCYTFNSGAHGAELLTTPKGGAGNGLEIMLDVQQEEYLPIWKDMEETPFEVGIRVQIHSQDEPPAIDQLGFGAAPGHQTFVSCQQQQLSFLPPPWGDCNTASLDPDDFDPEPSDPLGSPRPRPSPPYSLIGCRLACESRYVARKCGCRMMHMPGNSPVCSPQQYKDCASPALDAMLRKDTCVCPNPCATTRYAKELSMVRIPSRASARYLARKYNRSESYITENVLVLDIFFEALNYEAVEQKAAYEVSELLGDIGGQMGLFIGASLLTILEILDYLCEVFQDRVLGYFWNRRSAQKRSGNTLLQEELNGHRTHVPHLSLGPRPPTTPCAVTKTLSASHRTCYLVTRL
Experimental: as §1
as §2, with “The data are presented as mean ± SD.” left out

[3] = tested on: ASIC1a; settings: cited from earlier work; for effect on ASIC1a gating state: desensitization: ref 21, closed state: ref 13, 20, 22
Description: Animal toxins produced by spiders, snakes, and sea anemones are considered molecular instruments for the study of ASICs gating and promising drug precursors. […] Peptides from spiders and snakes inhibit mostly mammalian ASIC1a channels. […] Peptides Hcr 1b-3 and Hcr 1b-4, electrophysiologically examined in this study, are the closest homologues of Hcr 1b-1 and Hcr 1b-2 (78%–97% of identity) as well as APETx2 (46%–49% of identity) that are attributed to β-defensin-like peptides. […] (Table 2). Despite the absence of the crucial basic residue Arg17 [31] in the sequence ...

[4] = tested on: ASIC1b; settings: cited from earlier work
Description: (§3) It is noteworthy that to increase the current through the ASICs it takes an order of magnitude higher concentration of toxins than to inhibit it. […] No ASIC3 ...

[5] = tested on: models of cerebral ischemia, retinal stroke, optic nerve crush, and Parkinson’s disease; settings: cited from earlier work
Description: Animal toxins produced by spiders, snakes, and sea anemones are considered molecular instruments for the study of ASICs gating and promising drug precursors. […] Peptides from spiders and snakes inhibit mostly mammalian ASIC1a channels. Two of ASIC1a inhibitors from spiders, ...

[6] = tested on: human ASIC3; settings: simian-kidney-derived COS-7 cells; read-out: IC50, inhibition of human ASIC3; cited from earlier work
Description: (§4) Table 2 Electrophysiological activity of sea anemone toxins of structural class 1b on homomeric acid-sensing ion channels (ASICs). | column: ASIC3

[7] = molecular target: T2, rat ASIC3 channel; settings: rat ASIC3, X. laevis oocytes according to footnote of Table 2; read-out: IC50, inhibition of ASIC3 (APETx2); cited from earlier work
Description: as §4

[8] = tested on: ASIC3; settings: cited from earlier work
[9] = cited from earlier work
Description: Similarly to other APETx-like peptides, HcrTxs form four-stranded antiparallel β-sheets cross-linked by three disulfide bridges (C1–C5, C2–C4, C3–C6). Conforming to the obtained models, the short α-helix (22-24 aa) of HcrTxs localized within the flexible region between the second and third strands (Figure 3a). Hcr 1b-2, -3, -4, and APETx2 are very basic peptides (theoretical pI being of 9.53, 9.23, 9.26, and 9.33, respectively). Basic-aromatic clusters play an important role in the formation of complexes between the ASIC channel and peptide toxins PcTx1, mambalgin- ...

[10] = tested on: NaV1.2; parameters: method as in PMID 22972919; settings: cited from earlier work
[11] = tested on: NaV1.8; parameters: method as in PMID 22972919; settings: cited from earlier work
[12] = tested on: hERG; parameters: method as in 2 sources, ref 31 = [31]; PMID 25337890; doi:10.1021/jm501400p; 31. Jensen J.E. Cristofori-Armstrong B. Anangi R. Rosengren K.J. Lau C.H.Y. Mobli M. Brust A. Alewood P.F. King G.F. Rash L.D. Understanding the molecular basis of toxin promiscuity: The analgesic sea ||| ref 33 = [33]; PMID 12815161; doi:10.1124/mol.64.1.59; 33. Diochot S. APETx1, a new toxin from the sea anemone anthopleura elegantissima, blocks voltage-gated human ether-a-go-go-related gene potassium channels Mol. Pharmacol. 2003 64 59 69 10.1124/mol.64; settings: cited from earlier work
[13] = tested on: ASIC2a; settings: cited from earlier work
Description: as §3

[14] = tested on: KV3.1; parameters: method as in PMID 9506974; settings: cited from earlier work
[15] = tested on: KV3.4; parameters: method as in PMID 16177043; settings: cited from earlier work
[16] = tested on: NaV1.7; parameters: method as in PMID 22442564; settings: TTX-sensitive NaV; read-out: EC50, NaV1.7 potentiation; cited from earlier work
[17] = tested on: TTX-resistant NaV; parameters: method as in PMID 22442564; settings: cited from earlier work

GTPCKCHGYIGVYWFMLAGCPDGYGYNLSCPYFLGICCVKK (disulfide 4-37, 6-30, 20-38) [Hcr 1b-3]
inhibition at 120 µM ([1]; Hcr 1b-3 at 120 μM, Hcr 1b-4 from concentration–response relationship, read-out: maximal inhibition of ASIC1a current): 70%
IC50 [1]: 4950 ± 190 nM
A (response value at maximal inhibition, % of control), rASIC1a [1]: 30.3 ± 0.7%
IC50 ([2]; X. laevis oocytes, pH drop 7.8 to 4.0 (legend of Figure 4: from 7.4), logistic fit, read-out: IC50, inhibition of transient rASIC3 current): 17000 ± 5800 nM
A (response value at maximal inhibition, % of control), rASIC3 ([2]; fit parameter, pH drop to 4.0): 26 ± 7%

PcTx1: spider toxin from Psalmopoeus cambridgei (EDCIPKWKGCVNRHGDCCEGLECWKRRRSFEVCVPKTPKT; ends and bridges not checked; cysteine pairing not given here; UniProt P60514 1-40, looked up)
effect on ASIC1a gating state [3]: promote desensitization of ASIC1a
effect on ASIC1b current [4]: potentiate ASIC1b
neuroprotection [5]: effective neuroprotectors

APETx2: toxin from sea anemone Anthopleura elegantissima, ASIC3 inhibitor (GTACSCGNSKGIYWFYRPSCPTDRGYTGSCRYFLGTCCTPAD; UniProt P61542 1-42, looked up)
IC50 [6]: 175 nM
IC50 [7]: 63 nM
effect on ASIC1a current [3]: no effect
IC50 ([8]; species not given, read-out: IC50, inhibition of ASIC3): 63 nM
effect on ASIC3 sustained component ([8]; sustained current): no effect
theoretical pI [9]: 9.33
IC50 [10]: 114 ± 25 nM
IC50 [11]: 55 ± 10 nM
IC50 [12]: 1210 ± 50 nM
effect on ASIC1b current [4]: potentiate ASIC1b
effect on ASIC2a current [13]: potentiate ASIC1b and ASIC2a currents

BDS-I: toxin BDS-I from sea anemone A. sulcata (AAPCFCSGKPGRGDLWILRGTCPGGYGYTSNCYKWPNICCYPH; UniProt P11494 1-43, looked up)
IC50 [14]: 47 nM
IC50 [15]: 220 nM
EC50 [16]: ~3 nM
effect on TTX-resistant NaV [17]: weakly inhibits TTX-resistant NaV

GTPCDCYGYTGVYWFMLSRCPSGYGYNLSCHYFMGICCVKR (disulfide 4-37, 6-30, 20-38) [Hcr 1b-4]
IC50 [1]: 1250 ± 40 nM
A (response value at maximal inhibition, % of control), rASIC1a [1]: 13.7 ± 0.8%
EC50 ([2]; X. laevis oocytes, pH drop 7.8 to 4.0 (legend of Figure 4: from 7.4), potentiation, read-out: EC50, potentiation of transient rASIC3 current): 1530 ± 70 nM
A, rASIC3 potentiation ([2]; fit parameter, pH drop to 4.0): 207.78 ± 1.56%

mambalgin-1: snake toxin from Dendroaspis polylepis (LKCYQHGKVVTCHRDMKFCYHNTGMPFRNLKLILQGCSSSCSETENNKCCSTDRCNK; UniProt P0DKR6 22-78, looked up)
effect on ASIC1a gating state [3]: stabilize the closed channels state
